Measured values: ChEMBL document CHEMBL1201862, “PubChem BioAssay data set” (2004)
Calls of active or inactive are those of the source.

Experiments:
[1] = target: Paired box protein Pax-8 (Homo sapiens, UniProt Q06710); assay: PAX8 transcriptional activity inhibition in RMG-I – RMG-I cells, luciferase, cherry-pick, dose response (AID 687027); assay type: functional, cell-based;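 also: luciferase reporter driven by Pax8 target thyroperoxidase promoter measured by SteadyGlo luminescence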
[2] = off-target signal loss in HeLa-CEM21 co-culture – HeLa F-luc CTL cells, cherry-picked, counter-screen for HIV-1 Env fusion inhibitor project, dose response (AID 652040); assay type: functional, cell-based;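 also: potency for signal decrease marking cytotoxic or nonspecific inhibition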
[3] = T. cruzi growth inhibition in host cells, dose response, cell-based, plate reader, dry powder, set 2 (AID 652275); assay type: functional
[4] = target: T1, Sentrin-specific protease 8 (Homo sapiens, UniProt Q96LD8); assay type: functional;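 also: luminescence read-out of SENP8 inhibition, dose-response confirmation following an ultra-high-throughput screen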
T1 sequence (Q96LD8 whole entry): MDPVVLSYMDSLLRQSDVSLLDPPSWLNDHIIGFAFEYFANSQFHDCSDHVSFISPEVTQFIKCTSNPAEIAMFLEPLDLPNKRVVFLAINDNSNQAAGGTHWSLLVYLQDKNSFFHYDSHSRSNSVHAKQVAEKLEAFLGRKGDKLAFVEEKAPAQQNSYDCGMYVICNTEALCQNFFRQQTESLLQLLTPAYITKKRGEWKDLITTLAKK

[5] = target: T2, Sentrin-specific protease 7 (Homo sapiens, UniProt Q9BQF6); assay type: functional;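 also: Luminescence-based dose-response confirmation of ultra-high-throughput screening hits, measuring inhibition of SENP7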
T2 sequence (Q9BQF6 whole entry): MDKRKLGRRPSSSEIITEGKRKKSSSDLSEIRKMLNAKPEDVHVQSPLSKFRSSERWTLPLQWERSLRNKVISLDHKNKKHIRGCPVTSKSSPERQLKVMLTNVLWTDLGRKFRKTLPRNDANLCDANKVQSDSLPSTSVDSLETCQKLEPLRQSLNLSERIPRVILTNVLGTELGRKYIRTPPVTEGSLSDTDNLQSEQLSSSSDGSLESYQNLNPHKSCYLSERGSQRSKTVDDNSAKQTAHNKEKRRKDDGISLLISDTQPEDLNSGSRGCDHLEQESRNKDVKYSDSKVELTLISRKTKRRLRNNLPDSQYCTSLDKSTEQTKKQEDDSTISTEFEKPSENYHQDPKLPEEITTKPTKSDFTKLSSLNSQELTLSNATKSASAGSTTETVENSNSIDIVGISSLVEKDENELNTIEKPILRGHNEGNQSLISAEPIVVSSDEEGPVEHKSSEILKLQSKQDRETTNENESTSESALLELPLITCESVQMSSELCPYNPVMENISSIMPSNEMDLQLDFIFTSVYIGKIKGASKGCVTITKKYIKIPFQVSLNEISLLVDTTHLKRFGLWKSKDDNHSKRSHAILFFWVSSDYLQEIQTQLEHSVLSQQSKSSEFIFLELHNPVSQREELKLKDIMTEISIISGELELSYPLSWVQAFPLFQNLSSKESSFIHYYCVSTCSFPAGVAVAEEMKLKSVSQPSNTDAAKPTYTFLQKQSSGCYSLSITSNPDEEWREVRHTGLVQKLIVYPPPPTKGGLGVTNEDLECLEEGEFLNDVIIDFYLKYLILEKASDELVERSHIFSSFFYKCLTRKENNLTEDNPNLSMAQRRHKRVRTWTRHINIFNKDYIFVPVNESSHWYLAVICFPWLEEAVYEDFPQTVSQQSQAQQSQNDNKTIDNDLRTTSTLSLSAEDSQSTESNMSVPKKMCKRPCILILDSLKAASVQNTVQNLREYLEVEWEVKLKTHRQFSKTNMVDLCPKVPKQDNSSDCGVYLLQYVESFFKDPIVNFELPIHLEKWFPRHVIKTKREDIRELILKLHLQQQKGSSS

[6] = test system: Streptococcus sp. 'group A'; assay: Streptococcus pyogenes SK(-)GAS viability under kanamycin – luminescence, BacTiterGlo, confirmation, counter-screen for streptokinase expression inhibitor project, dose response (AID 1900); assay type: functional, organism-based
[7] = target: T3, Caspase-3 (Homo sapiens, UniProt P42574); assay type: functional;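 also: Dose-response selectivity test against caspase-3 for candidate inhibitors of sentrin-specific proteases (SENPs)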
T3 sequence (P42574 whole entry): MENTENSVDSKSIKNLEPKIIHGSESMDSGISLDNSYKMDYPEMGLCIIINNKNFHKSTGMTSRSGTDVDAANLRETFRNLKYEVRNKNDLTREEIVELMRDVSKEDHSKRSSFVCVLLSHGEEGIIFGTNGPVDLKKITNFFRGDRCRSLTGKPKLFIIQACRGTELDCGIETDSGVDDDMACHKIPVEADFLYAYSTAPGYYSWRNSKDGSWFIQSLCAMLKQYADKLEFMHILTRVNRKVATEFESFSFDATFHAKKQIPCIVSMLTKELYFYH

[8] = target: T4, Streptokinase A (Streptococcus pyogenes serotype M1, UniProt P10520); assay: viability-normalized secreted streptokinase activity reduction – plasminogen activation absorbance, OD405, dose response (AID 1914); assay type: functional, Streptococcus pyogenes M1 GAS;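 also: secreted streptokinase activity via plasminogen activation per viability signal from cell pellet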
T4 sequence (P10520 whole entry): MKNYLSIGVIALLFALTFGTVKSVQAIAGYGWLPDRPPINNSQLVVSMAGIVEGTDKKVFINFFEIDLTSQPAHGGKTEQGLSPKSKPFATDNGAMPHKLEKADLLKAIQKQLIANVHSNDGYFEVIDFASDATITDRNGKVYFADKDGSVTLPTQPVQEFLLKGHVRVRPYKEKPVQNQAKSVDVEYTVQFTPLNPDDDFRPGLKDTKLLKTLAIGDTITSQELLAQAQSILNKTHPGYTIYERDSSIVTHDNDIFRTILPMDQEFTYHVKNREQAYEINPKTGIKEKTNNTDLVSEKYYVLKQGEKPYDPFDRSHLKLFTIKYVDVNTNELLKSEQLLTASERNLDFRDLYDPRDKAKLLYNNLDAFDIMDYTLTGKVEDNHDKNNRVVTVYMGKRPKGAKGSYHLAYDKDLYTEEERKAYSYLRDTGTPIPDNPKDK

[9] = target: T5, Sentrin-specific protease 6 (Homo sapiens, UniProt Q9GZR1); assay type: functional;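 also: Luminescence-based dose-response confirmatory assay of SENP6 inhibition, following up an ultra-high-throughput screen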
T5 sequence (Q9GZR1 whole entry): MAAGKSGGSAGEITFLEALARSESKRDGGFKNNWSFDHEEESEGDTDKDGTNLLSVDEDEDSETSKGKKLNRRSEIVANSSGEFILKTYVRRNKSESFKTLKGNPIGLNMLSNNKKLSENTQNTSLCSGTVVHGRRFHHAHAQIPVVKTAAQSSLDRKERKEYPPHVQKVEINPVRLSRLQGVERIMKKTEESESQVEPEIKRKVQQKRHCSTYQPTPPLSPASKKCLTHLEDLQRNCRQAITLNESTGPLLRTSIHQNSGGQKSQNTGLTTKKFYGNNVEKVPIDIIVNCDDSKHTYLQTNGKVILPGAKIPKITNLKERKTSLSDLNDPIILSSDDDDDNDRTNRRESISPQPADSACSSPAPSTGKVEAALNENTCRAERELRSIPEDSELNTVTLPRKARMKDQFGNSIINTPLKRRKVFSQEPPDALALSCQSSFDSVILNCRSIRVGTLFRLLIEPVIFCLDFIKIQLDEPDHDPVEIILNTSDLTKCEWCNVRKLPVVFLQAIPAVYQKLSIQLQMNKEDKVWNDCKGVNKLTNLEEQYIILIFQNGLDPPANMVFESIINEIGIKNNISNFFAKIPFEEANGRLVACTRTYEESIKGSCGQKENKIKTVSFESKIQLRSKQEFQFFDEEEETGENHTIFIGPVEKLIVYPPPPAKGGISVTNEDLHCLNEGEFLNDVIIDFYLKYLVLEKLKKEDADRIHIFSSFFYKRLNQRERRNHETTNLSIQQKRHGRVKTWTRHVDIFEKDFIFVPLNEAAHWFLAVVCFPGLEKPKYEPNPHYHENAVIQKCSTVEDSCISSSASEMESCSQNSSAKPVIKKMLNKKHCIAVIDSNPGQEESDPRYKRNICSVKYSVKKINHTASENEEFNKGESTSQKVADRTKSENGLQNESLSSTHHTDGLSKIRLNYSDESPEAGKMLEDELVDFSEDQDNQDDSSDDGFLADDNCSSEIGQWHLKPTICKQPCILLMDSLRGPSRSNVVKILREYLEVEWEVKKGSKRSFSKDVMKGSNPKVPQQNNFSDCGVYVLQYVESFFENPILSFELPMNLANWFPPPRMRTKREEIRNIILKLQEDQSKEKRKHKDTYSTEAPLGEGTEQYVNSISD

[10] = test system: Streptococcus; assay: GAS UMAA2166 growth inhibition – luminescence, BacTiterGlo, counter-screen for streptokinase expression inhibitor project, dose response (AID 1915); assay type: functional, organism-based;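 also: potency for reduction of bacterial viability or growth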
[11] = viability loss in HeLa cells – cytotoxicity control for MgcRacGAP inhibitor project, dose response (AID 624300); assay type: functional
[12] = target: T6, Rac GTPase-activating protein 1 (Homo sapiens, UniProt Q9H0H5); assay: blockers of MgcRacGAP-driven Rac1 GTP hydrolysis – biochemical, ADP Hunter fluorescence, primary and confirmatory, confirmation (AID 624330); assay type: functional
T6 sequence (Q9H0H5 whole entry): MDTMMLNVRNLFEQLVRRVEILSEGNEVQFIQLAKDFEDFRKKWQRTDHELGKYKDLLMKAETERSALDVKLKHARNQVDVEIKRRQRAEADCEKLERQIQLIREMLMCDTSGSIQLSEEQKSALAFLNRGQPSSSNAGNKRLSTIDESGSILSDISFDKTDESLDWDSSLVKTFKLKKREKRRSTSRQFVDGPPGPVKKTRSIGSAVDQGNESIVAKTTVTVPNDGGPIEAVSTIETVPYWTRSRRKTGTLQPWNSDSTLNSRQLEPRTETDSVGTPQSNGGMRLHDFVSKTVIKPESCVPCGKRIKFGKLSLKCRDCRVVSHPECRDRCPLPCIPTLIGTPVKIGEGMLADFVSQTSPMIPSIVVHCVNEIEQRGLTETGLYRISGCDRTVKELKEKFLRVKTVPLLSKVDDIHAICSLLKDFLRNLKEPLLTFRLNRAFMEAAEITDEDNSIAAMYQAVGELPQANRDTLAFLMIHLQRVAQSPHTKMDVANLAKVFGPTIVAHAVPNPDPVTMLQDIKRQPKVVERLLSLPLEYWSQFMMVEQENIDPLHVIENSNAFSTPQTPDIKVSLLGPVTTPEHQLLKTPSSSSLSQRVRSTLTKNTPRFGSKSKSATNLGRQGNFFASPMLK

[13] = Luminescence Cell-Based Dose Response HTS to Identify Activators of Luciferase Translation or Activity in H4 […] Cells. [Related pubchem assays: 1829 (Project Summary), 1814 (Primary HTS)]; assay type: functional
[14] = test system: H4; assay: Luminescence Cell-Based Dose Response HTS to Identify Activators of 5'UTR Stem-Loop Driven Prion Protein mRNA Translation in H4 Neuroglioblastoma Cells. [Related pubchem assays: 1829 (Project Summary), 1814 (Primary HTS)]; assay type: functional; settings: Homo sapiens
[15] = Luminescence Cell-Based Dose Confirmation HTS to Identify Activators of 5'UTR Stem-Loop Driven Alpha-Synuclein mRNA Translation in H4 Neuroglioblastoma Cells. [Related pubchem assays: 1829 (Project Summary), 1814 (Primary HTS)]; assay type: functional
[16] = blockers of HIV-1 ZM109 envelope-driven cell-cell fusion – HeLa effector, CEM target cells, luciferase, cherry-pick, dose response (AID 652058); assay type: functional, cell-based;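 also: luciferase signal from HIV-1 Env mediated cell-cell fusion of effector and target cells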
[17] = blockers of HIV-1 envelope-mediated cell-cell fusion – cherry-pick, dose response (AID 652057); assay type: functional, cell-based
[18] = HIV-1 AD8 envelope cell-cell fusion blockers – cherry-pick, dose response (AID 652062); assay type: functional, cell-based;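 also: luciferase signal from cell-cell fusion driven by HIV-1 clade B AD8 Env; potency is for inhibitors of fusion seen as a drop in luminescence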

Chain of Paired box protein Pax-8 (Q06710 whole entry, the tested form may be a part): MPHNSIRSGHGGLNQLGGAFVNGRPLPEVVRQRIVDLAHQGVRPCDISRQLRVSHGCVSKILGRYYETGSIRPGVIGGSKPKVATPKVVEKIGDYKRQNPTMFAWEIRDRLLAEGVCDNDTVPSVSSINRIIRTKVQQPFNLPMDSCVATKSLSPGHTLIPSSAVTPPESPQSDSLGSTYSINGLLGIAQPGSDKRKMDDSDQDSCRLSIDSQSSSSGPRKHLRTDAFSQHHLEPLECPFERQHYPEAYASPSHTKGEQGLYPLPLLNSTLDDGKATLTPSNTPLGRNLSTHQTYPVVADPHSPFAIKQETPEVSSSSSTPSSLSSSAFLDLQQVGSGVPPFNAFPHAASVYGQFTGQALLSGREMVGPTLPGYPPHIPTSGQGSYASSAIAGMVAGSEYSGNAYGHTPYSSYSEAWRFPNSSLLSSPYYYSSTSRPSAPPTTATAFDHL

SMILES: Cc1ccc2c(c1)c1c3n2CCN(CC(N)=O)C3CCC1 (stereo unspecified)
- AC50 [1]: 6.82 µM (active)
- AC50 [2]: 7.87 µM (active)

SMILES: CC(C)N1C[C@@H](CN(C)Cc2ccc(Cl)cc2)Oc2c(NC(=O)c3ccncc3)cc(F)cc2C1=O
- AC50 [3]: 3.26 nM (active)

SMILES: CCn1c(SCc2ccccc2Cl)nc2ccccc21
- IC50 [4]: 29.3 µM (active)
- IC50 [5]: 11.3 µM (active)
- EC50 [6]: 16.5 µM (active)
- IC50 [7]: 40.6 µM (active)
- EC50 [8]: 21.4 µM (active)
- IC50 [9]: 17.5 µM (active)
- EC50 [10]: > 150 µM (not active)

SMILES: COc1cc(C(C[N+](=O)[O-])c2c(N)n(C)c(=O)n(C)c2=O)ccc1O (stereo unspecified)
- CC50 [11]: 80.4 µM (active)
- IC50 [12]: 111 µM (active)

SMILES: CN(C)CC#Cc1cccc(-c2nc(C(=O)N3CCN(Cc4ccccc4)CC3)cc3c2[C@H](CCO)N([S+]([O-])C(C)(C)C)C3)c1 (stereo partly specified)
- AC50 [3]: 6100 nM (active)

SMILES: Cc1cccc(C(=N)NOC(=O)N2c3ccccc3Sc3ccccc32)c1
- EC50 [13]: > 120 µM (not active)
- EC50 [14]: > 120 µM (not active)
- CC50 [11]: 92.6 µM (active)
- EC50 [15]: > 120 µM (not active)

SMILES: CN(C[C@H](Cc1ccccc1)N(C[C@H](Cc1ccccc1)N(CC1(c2ccccc2)CC1)N=O)N=O)N=O
- AC50 [16]: 3.53 µM (active)
- AC50 [17]: 2.98 µM (active)
- AC50 [18]: 7.28 µM (active)
- AC50 [2]: 3.05 µM (active)

SMILES: Cc1ccccc1CN(C)C[C@H]1Oc2c(NC(=O)c3ccncc3)cccc2C(=O)N([C@@H](C)CO)C[C@@H]1C
- AC50 [3]: 55.9 nM (active)

SMILES: Cc1ccccc1-c1nc2sc3c(c2c(=O)o1)CCC3
- IC50 [4]: > 100 µM (inactive)
- IC50 [5]: 2.23 µM (active)
- IC50 [7]: 1.73 µM (active)
- IC50 [9]: 3.42 µM (active)

SMILES: Cc1ccccc1S(=O)(=O)N1C[C@H]2[C@H]3C(=O)N(C4CCCCC4)C(=O)[C@H]3CC(=O)[C@H]2[C@@H]1c1ccc(Cl)cc1
- AC50 [16]: 0.874 µM (active)
- AC50 [17]: 0.396 µM (active)
- AC50 [18]: 2.81 µM (active)
- AC50 [2]: 1.2 µM (active)

SMILES: COc1cc(-c2ncc3ccccn23)cc(OC)c1OC
- CC50 [11]: 100 µM (active)
- IC50 [12]: 123 µM (active)

SMILES: COc1ccc(NC(=O)Nc2ccc3c(c2)N(C)C(=O)CS3)cc1Cl
- AC50 [16]: 3.37 µM (active)
- AC50 [17]: 31.1 µM (active)
- AC50 [18]: 11.8 µM (active)
- AC50 [2]: > 70 µM (inactive)
